Laboratory results reported in the supplement of paper PMC6206229.
In brackets after ≈: the same amount, converted by molar mass.

Experiments:
[1] = tested on: Staphylococcus aureus ATCC 29213 (MSSA); assay: minimum inhibitory concentration; extreme values may be limits of the assay
Summary of the method: (§1)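 Following CLSI guidance, methicillin-susceptible and methicillin-resistant Staphylococcus aureus were exposed to compounds from 0 to 100 µM in 96-well plates for 24 h at 37°C, then to 30 µl of 0.015% resazurin for 2–4 h. The minimum inhibitory concentration was read as the lowest concentration with no change from blue to pink. Testing was done at least twice in triplicate with positive controls on each plate.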

[2] = tested on: Staphylococcus aureus ATCC 700699 (MRSA); assay: as above
Summary of the method: as §1

| Compound | minimum inhibitory concentration [1] [µM] | minimum inhibitory concentration [2] [µM] |
| --- | --- | --- |
| C[C@H]1c2cccc(O)c2C(=O)C2=C(O)[C@]3(O)C(=O)C(C(N)=O)=C(O)[C@@H](N(C)C)[C@@H]3[C@@H](O)[C@@H]21 | 0.781 (≈ 0.347 µg/mL) | 25 (≈ 11.1 µg/mL) |
| COc1ccc2nc(C)cc(OCC(=O)NCc3ccccc3)c2c1 | > 50 | > 50 |
| O=C([C@@H](c1ccc(Cl)cc1)c1cccnc1)N1CCN(c2ccc(C(F)(F)F)cc2)CC1 | 50 (≈ 23 µg/mL) | 50 (≈ 23 µg/mL) |
| Cc1cc(OCC(=O)NCc2ccccc2)c2cc(Br)ccc2n1 | > 50 | > 50 |
| COc1ccc(-c2nc(-c3cccc(NC(=O)Cc4ccc(F)cc4)c3)no2)cc1OC | > 50 | > 50 |
| Cc1cc(C)cc(COc2ccc3c(C)c(CCC(=O)O)c(=O)oc3c2C)c1 | > 50 | > 50 |
| O=C(C1CCN(c2nnnn2-c2ccccc2)CC1)N1CCc2ccccc2C1 | > 50 | > 50 |
| O=C(NCCN1CCCC1)c1cc(NCCCCN2CCC(F)(F)CC2)nc2ccc(Cl)cc12 | > 50 | > 50 |
| O=C(Cn1ccnc1[N+](=O)[O-])NCc1ccccc1 | > 50 | > 50 |
| Cc1ccc(NC(=O)c2cc(S(=O)(=O)NC(C)(C)C)ccc2C)nc1 | > 50 | > 50 |
| Cc1nc(-c2ccccn2)nc(NCCc2ccc(S(C)(=O)=O)cc2)c1Cl | > 50 | > 50 |
| COC(=O)c1c(NC(=O)c2c(F)c(F)c(F)c(F)c2F)sc2c1CCCCC2 | > 50 | > 50 |
| c1ccc(Oc2ccc(-c3cncc(-c4ccc5[nH]ccc5c4)n3)cc2)cc1 | > 50 | > 50 |
| CCc1ccccc1-n1c(C)cn2c3c(=O)n(C(C(=O)OC)C(C)C)c(=O)n(C)c3nc12 (stereo not drawn) | > 50 | > 50 |
| NCC(=O)N1CCn2c(nc(-c3ccccc3)c2Nc2ccc3c(c2)OCO3)C1 | > 50 | > 50 |
| Cc1nn(Cc2ccccc2)c(Cl)c1C(=O)NC1CCCCCC1 | > 50 | > 50 |
| CC(C)(C)c1cnc(NC(=O)c2ccccc2O)s1 | > 50 | > 50 |
| c1ccc(Oc2ccc(-c3cc(CN4CCOCC4)[nH]n3)cc2)cc1 | > 50 | > 50 |
| C[C@]1(COc2ccc(N3CCC(Oc4ccc(OC(F)(F)F)cc4)CC3)cc2)Cn2cc([N+](=O)[O-])nc2O1 | > 50 | > 50 |
| CC(C)(C)c1cc(C(=O)Nc2cccnc2)cc(C(=O)Nc2cccnc2)c1 | > 50 | > 50 |
| OCCc1ccc(Nc2nccc(-c3nnc4ccccn34)n2)cc1 | > 50 | > 50 |
| O=C(NCCc1c[nH]c2ccccc12)c1cc2ccccc2oc1=O | > 50 | > 50 |
| CC(=O)N(CCN(C(=O)c1ccc(F)cc1)c1ccccc1)c1ccccc1 | > 50 | > 50 |

| Compound | minimum inhibitory concentration [1] [µM] | minimum inhibitory concentration [2] [µM] |
| --- | --- | --- |
| COc1cccc(-c2cc3c(Nc4cccnc4)nccc3[nH]2)c1 | > 50 | > 50 |
| CCOc1ccccc1C(=O)Nc1cccc(-c2nc3ncccn3c2C)c1 | > 50 | > 50 |
| COc1ccc(Cl)cc1NC(=O)CN(C)C(=O)c1cnn(-c2ccccc2)n1 | > 50 | > 50 |
| COc1ccc(Oc2ccc([C@@H](C)N(C)c3ncc4c(N)nc(N)nc4n3)cc2)cc1 | > 50 | > 50 |
| COc1ccc(OC(C)C(=O)Nc2ccc(Cl)cc2C)cc1 (stereo not drawn) | > 50 | > 50 |
| Nc1c2c(nc3sc4c(c13)CCCC4)CCCC2 | > 50 | > 50 |
| N#Cc1ccc(-c2ccc(OCC(N)=O)cc2)cc1 | > 50 | > 50 |
| NCCCC(N)(C(=O)O)C(F)F (stereo not drawn) | > 50 | > 50 |
| CCc1ccc([C@@H]2C[C@H](C(F)(F)F)n3ncc(C(=O)NCc4ccc(OC)cc4)c3N2)cc1 | > 50 | > 50 |
| CCC(Sc1nc2ccccc2o1)C(=O)Nc1nnc(C)s1 (stereo not drawn) | 50 (≈ 16.7 µg/mL) | 50 (≈ 16.7 µg/mL) |
| O=C(Nc1nnc(S)s1)c1cc(Br)ccc1Cl | > 50 | > 50 |
| O=C(NCc1nnc2n1CCCCC2)c1ccc(-c2ccc(F)cc2)o1 | > 50 | > 50 |
| O=C(NC1CC1)c1ccc(N2CCOc3ccc(Cl)cc32)s1 | > 50 | > 50 |
| FC(F)(F)c1cnc(Sc2nnc(-c3ccncc3)o2)c(Cl)c1 | > 50 | > 50 |
| Cc1ccc2oc(-c3cc(NC(=O)Cc4ccccc4)ccc3Cl)nc2c1 | > 50 | > 50 |
| NS(=O)(=O)c1cncc(-c2ccc3nccc(-c4cn[nH]c4)c3n2)c1 | > 50 | > 50 |
| COc1ccc(-c2cnc3ccc(N4CCCC4)nn23)cc1OC | > 50 | > 50 |
| Cc1ccc(Oc2ccc(NC(=O)CNc3ccccc3N3CCCC3=O)cc2)cc1 | > 50 | > 50 |
| CC(c1cc(Cl)cc(Cl)c1)N(C)c1ncc2c(N)nc(N)nc2n1 (stereo not drawn) | 50 (≈ 18.2 µg/mL) | 50 (≈ 18.2 µg/mL) |
| CN1CCN(CCCOc2ncc(Nc3ncc(-c4ccc(C(F)(F)F)c(F)c4)nc3C(N)=O)cn2)CC1 | > 50 | > 50 |
| Cc1ccc(S(=O)(=O)Nc2ccc(CN3CCN(C(=O)c4cccc(C#N)c4)CC3)cc2)cc1 | > 50 | > 50 |
| O=C(Nc1ccnc(-c2cccnc2)n1)c1cc(C(F)(F)F)cc(C(F)(F)F)c1 | > 50 | > 50 |
| O=C1[C@@H](Oc2ccccc2)[C@@H](c2ccc(Cl)cc2)N1CCn1cnc2c(NCc3ccccc3)ncnc21 | > 50 | > 50 |

| Compound | minimum inhibitory concentration [1] [µM] | minimum inhibitory concentration [2] [µM] |
| --- | --- | --- |
| CC(C)(C)n1nc(-c2ccccc2)c2c(N)ncnc21 | > 50 | > 50 |
| O=C(c1ccco1)N(CCCn1ccnc1)c1nc2c(Cl)cccc2s1 | > 50 | > 50 |
| O=C(C(Cc1c[nH]c2ccccc12)NS(=O)(=O)c1ccc(Cl)cc1)N1CCCCC1 (stereo not drawn) | > 50 | > 50 |
| O=C(NCc1cc(Cl)cc(Cl)c1)c1c(C(F)(F)F)nc2ccccn12 | > 50 | > 50 |
| O=C(Nc1ccc(N2CCNCC2)cc1)c1ccn2ncc(-c3cccc(Cl)c3)c2n1 | > 50 | > 50 |
| O=C(Nc1cccc(Cl)c1)c1cnc(N2CCN(c3ccncc3)CC2)c(Cl)c1 | > 50 | > 50 |
| COc1ccc(-c2onc(C(F)(F)F)c2-c2ccc(Cl)cc2)c(O)c1 | > 50 | > 50 |
| CCCNC(=O)N1CCC2(CC1)CC(=O)c1cc(C)ccc1O2 | > 50 | > 50 |
| CC(C)C(Oc1cccc2ccccc12)C(=O)O (stereo not drawn) | > 50 | > 50 |
| O=C(c1ccc(F)cc1)N(CCNc1ccccc1)c1ccccc1 | > 50 | > 50 |
| Cc1cc(Nc2ccc(C(F)(F)F)cc2)n2ccnc2n1 | > 50 | > 50 |
| Cc1cc(NCC(C)C)c2[nH]nc(-c3ccccc3)c2n1 | > 50 | > 50 |
| Cc1nn2c(=O)c3c([nH]c2c1-c1ccc(Cl)cc1)CCCC3 | > 50 | > 50 |
| CC(C(=O)Nc1ccc2oc(-c3ccncc3)nc2c1)c1ccccc1 (stereo not drawn) | > 50 | > 50 |
| CC(C)(C)CN1C(=O)C(c2ccccc2)(c2ccccc2)N=C1N | > 50 | > 50 |
| OC[C@H]1O[C@@H](n2c3ccc(Cl)cc3c3c(-c4cc5ccccc5o4)ncnc32)C(O)[C@H]1O (stereo partly drawn) | > 50 | > 50 |
| Cc1ccc(S(=O)(=O)n2cc(-c3ccnc(N)c3)c3cc(Br)cnc32)cc1 | > 50 | > 50 |
| Nc1ncnc2c1ncn2[C@@H]1O[C@H](COS(=O)(=O)NC(=O)c2ccccc2O)[C@@H](O)[C@H]1O | > 50 | > 50 |
| Cc1nn(C(=O)Nc2cccc(C(F)(F)F)c2)c(C)c1Sc1ncccn1 | > 50 | > 50 |
| COc1ccc(C2=NN(C3CCCCCC3)C(=O)C2(C)C)cc1OCCCCOc1ccc(-c2nn[nH]n2)cc1 | 50 (≈ 27.3 µg/mL) | 50 (≈ 27.3 µg/mL) |
| COc1ccc(OC)c(NCc2ccc3nc(N)nc(N)c3c2Cl)c1 | 50 (≈ 18 µg/mL) | 50 (≈ 18 µg/mL) |
| Clc1ccc(-n2cc(COc3ccnc4ccccc34)nn2)cc1 | > 50 | > 50 |
| CC1=NN(c2nc3ccccc3s2)C(=O)C1Cc1cccc2ccccc12 (stereo not drawn) | > 50 | > 50 |
